In ChEMBL document CHEMBL1177664, “Development of tryptase inhibitors derived from thalidomide” (Bioorg Med Chem, 2010):
Active and inactive are the calls of the source. The calls are words filed in the database; no cut-off is given here.

Legend:
[1] = species: Homo sapiens; test: Inhibition of human tryptase-beta at 30 uM after 5 mins by fluorimetric analysis
[2] = (§1) Inhibition of human tryptase-beta after 5 mins by fluorimetric analysis
[3] = Binding affinity to human tryptase-beta after 3 mins
[4] = Binding affinity to bovine type 1 trypsin after 3 mins; design: species or system Bos taurus
[5] = species: Homo sapiens; test: Competitive inhibition of human tryptase-beta by Lineweaver-Burke plot analysis
[6] = target: Prothrombin (Bos taurus, UniProt P00735); test: Binding affinity to bovine thrombin after 3 mins
[7] = species: Homo sapiens; test: as §1

Compound	inhibition [1]	IC50 [2] [µM]	also measured
CN1C(=O)c2ccc(OC(=O)CCc3cccc(N)c3)cc2C1=O	inactive	–	–
COc1ccc(CCC(=O)Oc2ccc3c(c2)C(=O)N(C)C3=O)cc1	inactive	–	–
CN1C(=O)c2ccc(OC(=O)c3cccc(N)c3)cc2C1=O	inactive	–	–
COc1ccccc1N1C(=O)c2ccc(OC(=O)CCc3ccc(N)cc3)cc2C1=O	–	1.1	–
CN1C(=O)c2ccc(OC(=O)c3ccccc3N)cc2C1=O	inactive	1.5	–
CC(C)(C)c1ccc(N2C(=O)c3ccc(OC(=O)CCc4ccc(N)cc4)cc3C2=O)cc1	inactive	–	–
COc1ccc(N2C(=O)c3ccc(OC(=O)CCc4ccc(N)cc4)cc3C2=O)cc1	–	0.39	–
COc1cccc(N2C(=O)c3ccc(OC(=O)CCc4ccc(N)cc4)cc3C2=O)c1	–	0.65	–
Nc1ccc(CCC(=O)Oc2ccc3c(c2)C(=O)N(c2ccc(C(F)(F)F)cc2)C3=O)cc1	inactive	–	–
CN1C(=O)c2ccc(OC(=O)c3ccc(N)cc3)cc2C1=O	inactive	–	–
Cc1ccc(N2C(=O)c3ccc(OC(=O)CCc4ccc(N)cc4)cc3C2=O)cc1	–	1.2	–
COc1cc(CCC(=O)Oc2ccc3c(c2)C(=O)N(C)C3=O)ccc1N	–	> 30	–
CN1C(=O)c2ccc(OC(=O)CCc3ccncc3)cc2C1=O	–	> 30	–
CN1C(=O)c2ccc(OC(=O)CCc3ccccc3)cc2C1=O	inactive	–	–
CN1C(=O)c2ccc(OC(=O)Cc3ccc(N)cc3)cc2C1=O	inactive	–	–
Nc1ccc(CCC(=O)Oc2ccc3c(c2)C(=O)N(c2ccc(F)cc2)C3=O)cc1	–	1.7	–

Compound	inhibition [1]	IC50 [2] [µM]	also measured
CN1C(=O)c2ccc(OC(=O)CCc3ccc(N)nc3)cc2C1=O	–	0.4	Ki [3]: 0.34 µM; Ki [4]: 2.9 µM; inhibition [5]: Active; Ki [6]: 7 µM
Nc1ccc(CCC(=O)Oc2ccc3c(c2)C(=O)N(C2CCCCC2)C3=O)cc1	–	1.2	–
CN1C(=O)c2ccc(OC(=O)CCCc3ccc(N)cc3)cc2C1=O	inactive	–	–
CCCN1C(=O)c2ccc(OC(=O)CCc3ccc(N)cc3)cc2C1=O	–	1.2	–
CN1C(=O)c2ccc(OC(=O)CCc3ccc(N(C)C)cc3)cc2C1=O	inactive	–	–
CN1C(=O)c2ccc(OC(=O)Cc3cccc(N)c3)cc2C1=O	46%	–	–
COc1cc(N)ccc1CCC(=O)Oc1ccc2c(c1)C(=O)N(C)C2=O	–	1.8	–
N#Cc1ccc(N2C(=O)c3ccc(OC(=O)CCc4ccc(N)cc4)cc3C2=O)cc1	–	0.34	Ki [3]: 0.19 µM; Ki [4]: 4.3 µM; inhibition [5]: Active; Ki [6]: 8.6 µM
Nc1ccc(CCC(=O)Oc2ccc3c(c2)C(=O)N(c2ccccc2)C3=O)cc1	–	1.3	–
CN1C(=O)c2ccc(OC(=O)CCc3ccc(N)cc3)cc2C1=O	98%	1.5	Ki [3]: 1.7 µM; Ki [4]: 13 µM; Ki [6]: 15 µM
CN1C(=O)c2ccc(OC(=O)CCc3cnc(N)nc3)cc2C1=O	–	7.8	–
CC(C)N1C(=O)c2ccc(OC(=O)CCc3ccc(N)cc3)cc2C1=O	–	1.2	–
N#Cc1ccc(N2C(=O)c3ccc(OC(=O)CCc4ccc(N)nc4)cc3C2=O)cc1	–	0.078	inhibition [7]: Dose-dependent effect; Ki [3]: 0.044 µM; Ki [4]: 0.88 µM; inhibition [5]: Active; Ki [6]: 16 µM
CCCCCCN1C(=O)c2ccc(OC(=O)CCc3ccc(N)cc3)cc2C1=O	–	1.5	–
Nc1ccc(CCC(=O)Oc2ccc3c(c2)C(=O)N(c2ccc(N)cc2)C3=O)cc1	–	0.82	–
Nc1ccc(CCC(=O)Oc2ccccc2)cc1	inactive	–	–
